From patent publication US8574604B2, “Methods and compositions for the delivery of biologically active agents” (Interface Biologics, Inc., priority 2005, dated 2013)

Assay: UV/Vis measurement of Methyl Violet complexation by CyD-OF
Format: physicochemical
Settings: Methyl Violet 0.01 mg/mL in DMSO; decrease in absorbance indicates complexation
Protocol: CyD-OF (3a) ([…]) was dissolved in DMSO (75 μL). A solution of Methyl Violet (MV, 2.8 mg) in DMSO (28 mL) was prepared at 0.1 mg/mL. One mL of Methyl Violet solution was further diluted with DMSO (10 mL) to form a 0.01 mg/mL solution. The CyD-OF solution (75 μL) was added dropwise to a solution of MV (500 μL) in a 4 mL glass vial over the course of ten minutes. This solution was sealed and left in the dark for 12 hours. A UV/Vis measurement of the Methyl Violet solution at 0.01 mg/mL was taken (A (591 nm)=0.96) as control. The UV/Vis spectrum of the CyD-OF was measured at A (591 nm)=0.63, indicating the intensity of the guest molecules evidently to change upon the addition of molecular receptors. Upon complexation the absorbance decreased, confirming the formation of a complex. A control solution was also prepared.

UV/Vis absorbance A (591 nm): 0.96
Substance: Methyl Violet
